Where two headings read alike, the source gives them in different places.
Experiments:
[1] = target: T1, BChE from human plasma (Homo sapiens, UniProt P06276); assay: In vitro cholinesterase inhibition (Ellman), BuChE; assay type: biochemical; settings: read-out: IC50 BuChE
T1 construct: butyrylcholiesterase from human plasma; purchased Sigma-Aldrich; host or cells: human plasma
Method: (§1) Inhibitory activities of the tested compounds against AChE and BChE were measured according to Ellman et al.. Enzyme-catalysed hydrolysis of ATCHh was carried out at 25 °C in 0.1 M phosphate buffer (pH 8.0) containing 0.25 U AChE, 1 mM ATCHh as substrates, and 0.1 mM of DTNB. In experiments with BuChE, 0.1 M phosphate buffer (pH 7.0) and BuTChh as a substrate were used. The tested compounds were pre-incubated with the enzyme for two minutes prior to the addition of the substrate and the subsequent recording of hydrolysis kinetics. […] A sample without an inhibitor was used as a control (100% cholinesterase activity). A sample without a substrate was used as a blank. Experiments were performed in triplicate.

[2] = target: T2, human AChE (Homo sapiens, UniProt P22303); assay: In vitro cholinesterase inhibition (Ellman), AChE; assay type: biochemical; settings: for AChE Selectivity: (IC50 BuChE)/(IC50 AChE); for IC50: read-out: IC50 AChE
T2 construct: purchased Sigma-Aldrich
Method: as §1

[3] = tested on: AChE; settings: cited from earlier work
[4] = tested on: scopolamine-induced amnesia in mice; assay: Novel object recognition test, scopolamine-induced amnesia; assay type: in vivo
Method: This study explored the ability of bisuracil 3c to counteract scopolamine-induced amnesia in mice, utilising behavioural assessments conducted through the novel object recognition test. […] The induction of amnesia was facilitated by the i.p. injection of scopolamine (1.5 mg/kg) 50 min prior to testing. […]. An equivalent amount of the vehicle was administered to a control group of mice.
The experiments were carried out on CD1 mice of both sexes weighing 24–25 g. The novel object recognition test was conducted over a period of three days. On the first day, the mice were placed individually into the square testing arena with black walls (50 cm in length, 50 cm in width, 38 cm in height) for 5 min without any objects. On the second day, two identical objects were placed in the central part of the arena, and the mice were allowed to explore the objects for 10 min. Test compounds were administered prior to testing on the second day. The induction of amnesia was facilitated by i.p. injection of scopolamine (1.5 mg/kg) 50 min prior to testing. Tested compounds were administered i.p. 30 min prior to testing. The control group of animals was administered with an equivalent amount of vehicle. On the third day, the mice were presented with a familiar and a novel object for 10 min. The time of exploration of each object by the mice was recorded using a digital camera. After each test, the arena was cleaned with a solution of 70% ethanol. At the end of the test, the preference index (exploration of novel object/total exploration time × 100) was calculated.

[5] = target: T1, BChE from human plasma; settings: Table 1; bisuracils 1a–f; read-out: IC50 BuChE; cited from earlier work
[6] = target: T2, human AChE; settings: Table 1, bisuracils 1a–f, cited from earlier work; for AChE Selectivity: (IC50 BuChE)/(IC50 AChE)
[7] = tested on: mice poisoned with 2×LD50 of POX; assay: Protection against POX toxicity (pre-treatment); assay type: in vivo; settings: for relative risk of death (RRD): Cox analysis over 10 h
Method: The concept of using reversible AChE inhibition as a preventive strategy to enhance the efficacy of traditional antidotes in OP poisoning is a well-established principle. This study explores the potential of bisuracil 2b as a preventive agent to protect AChE from irreversible inhibition caused by paraoxon (POX), a model OP. […] Following POX administration, the standard antidote atropine was given at a dose of 15 mg/kg within one minute. […] Increasing the dose of bisuracil 2b reduced the protective effect in POX poisoned animals (Table 3).
We also estimated the relative risk of death (RRD) as a function of precocity (from min to hours) over a period of 10 h by Cox survival analysis. Statistical differences in the number of surviving animals between experimental groups were tested using the Cox–Mantel multisample logarithmic rank criterion. It was shown that, in mice exposed to 0.42 mg/kg of POX, RRD = 1 (Figure 5). However, in animals that received atropine within 1 min after poisoning, POX-induced mortality was lower (RRD = 0.5; Figure 5).
The tested compound was administered via i.p. before POX injection.

[8] = Table 1, BChE from human plasma, pH 7.0
[9] = Table 1, recombinant human AChE, 25 °C, pH 8.0

T1 sequence (P06276 29-602): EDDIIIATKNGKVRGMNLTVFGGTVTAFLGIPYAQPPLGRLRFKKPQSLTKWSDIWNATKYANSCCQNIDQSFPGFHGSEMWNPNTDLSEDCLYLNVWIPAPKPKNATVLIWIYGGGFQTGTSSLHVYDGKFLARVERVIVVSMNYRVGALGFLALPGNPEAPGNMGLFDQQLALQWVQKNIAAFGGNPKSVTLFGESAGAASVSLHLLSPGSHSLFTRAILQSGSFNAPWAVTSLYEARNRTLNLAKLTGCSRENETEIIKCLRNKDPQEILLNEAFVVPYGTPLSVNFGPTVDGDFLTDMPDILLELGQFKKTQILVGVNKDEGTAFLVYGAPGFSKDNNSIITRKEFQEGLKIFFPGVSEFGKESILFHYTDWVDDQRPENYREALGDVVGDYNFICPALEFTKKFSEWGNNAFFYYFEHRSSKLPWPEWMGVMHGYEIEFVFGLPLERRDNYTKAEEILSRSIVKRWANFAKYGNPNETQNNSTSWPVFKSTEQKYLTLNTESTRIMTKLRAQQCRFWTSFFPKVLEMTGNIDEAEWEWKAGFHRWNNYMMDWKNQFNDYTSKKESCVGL
T2 sequence (P22303 32-614): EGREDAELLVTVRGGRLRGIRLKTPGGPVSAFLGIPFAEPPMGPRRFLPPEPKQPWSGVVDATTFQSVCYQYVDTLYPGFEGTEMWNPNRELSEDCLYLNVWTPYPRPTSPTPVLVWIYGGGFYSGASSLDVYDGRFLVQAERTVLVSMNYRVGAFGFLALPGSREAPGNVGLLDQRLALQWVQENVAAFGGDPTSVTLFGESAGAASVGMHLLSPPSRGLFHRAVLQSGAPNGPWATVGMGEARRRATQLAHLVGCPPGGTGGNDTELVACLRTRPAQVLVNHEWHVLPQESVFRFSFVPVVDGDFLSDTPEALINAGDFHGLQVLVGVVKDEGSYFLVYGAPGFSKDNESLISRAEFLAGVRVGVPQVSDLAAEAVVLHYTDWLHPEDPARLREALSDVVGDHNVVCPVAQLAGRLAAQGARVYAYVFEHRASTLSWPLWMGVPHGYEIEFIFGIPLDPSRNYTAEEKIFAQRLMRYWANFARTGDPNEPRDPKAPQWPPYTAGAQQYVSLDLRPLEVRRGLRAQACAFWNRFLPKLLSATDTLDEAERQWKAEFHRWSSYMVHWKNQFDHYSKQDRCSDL

In the case of CC[N+](CC)(CCCCCn1c(=O)ccn(CCCCCn2c(C)cc(=O)n(C)c2=O)c1=O)Cc1ccccc1C#N [2c, 1,5-{(3,6-Dimethyluracil-1-yl)-[3-(5-o-nitrilebenzyl(diethyl)ammonio)pentyl)-uracil-1-yl]}pentane bromide], the IC50 [1, 8] is reported as 70 µM, the “AChE Selectivity” value ([2]; Table 1) is reported as 388,888 and the IC50 [2, 9] is reported as 0.0002 ± 6e-05 µM.

For COc1ccc2c3c1O[C@H]1C[C@@H](O)C=C[C@@]31CCN(C)C2 [galantamine], the “selectivity for AChE over BuChE” value [3] is listed as 50 fold.

In the case of CCN(C)C(=O)Oc1cccc([C@H](C)N(C)C)c1 [rivastigmine], the “inhibition profile (AChE vs BuChE)” value [3] is listed as “non-selective”.

With COc1cc2c(cc1OC)C(=O)C(CC1CCN(Cc3ccccc3)CC1)C2 (stereo not drawn) [Donepezil, donepezil, reference compound] the “increase in the preference for the novel object compared to the scopolamine-treated group” value ([4]; donepezil 1 mg/kg i.p. 30 min prior to testing, scopolamine 1.5 mg/kg, p = 0.03) was 32.2%.

In the case of CC[N+](CC)(CCCCCn1c(=O)ccn(CCCCCn2c(C)cc(=O)n(C)c2=O)c1=O)Cc1ccccc1[N+](=O)[O-] [1a], the IC50 [5] is listed as 40 µM, the “AChE Selectivity” value [6] is listed as 112,676 and the IC50 [6] is listed as 0.0004 ± 3e-05 µM.

In the case of CC[N+](CC)(CCCCCn1c(=O)ccn(CCCCn2c(C)cc(=O)n(C)c2=O)c1=O)Cc1ccccc1C(F)(F)F [1d], the IC50 [5] is listed as 200 µM, the “AChE Selectivity” value [6] is listed as 200,000 and the IC50 [6] is listed as 0.001 ± 0.0001 µM.

For CN1[C@@H]2C[C@@H](OC(=O)[C@H](CO)c3ccccc3)C[C@H]1[C@@H]1O[C@@H]12 [scopolamine, reference compound], the “reduction of the preference for the novel object compared to the control group” value ([4]; scopolamine 1.5 mg/kg i.p. 50 min prior to testing, p = 0.0001) was 34.1%.

For CC[N+](CC)(CCCCCn1c(=O)ccn(CCCn2c(C)cc(=O)n(C)c2=O)c1=O)Cc1ccccc1C(F)(F)F [1c], the IC50 [5] is listed as 440 µM, the “AChE Selectivity” value [6] is listed as 220,000 and the IC50 [6] is listed as 0.002 ± 0.0002 µM.

In the case of CC[N+](CC)(CCCCCn1c(=O)ccn(CCCCCn2c(C)cc(=O)n(C)c2=O)c1=O)Cc1ccccc1C(F)(F)F [1e], the IC50 [5] is given as 60 µM, the “AChE Selectivity” value [6] is given as 120,000 and the IC50 [6] is given as 0.0005 ± 3e-05 µM.

With CCN(CCCCCn1c(=O)ccn(CCCCn2c(C)cc(=O)n(C)c2=O)c1=O)Cc1ccccc1C#N [3b] the IC50 ([1]; Table 2, human BuChE) was 48.3 µM, the “AChE Selectivity” value ([2]; Table 2) was 6090 and the IC50 ([2]; Table 2, human AChE) was 0.0079 ± 0.00025 µM.

For CC[N+](CC)(CCCCCn1c(=O)ccn(CCCCCCn2c(C)cc(=O)n(C)c2=O)c1=O)Cc1ccccc1C#N [2d, 1,6-{(3,6-Dimethyluracil-1-yl)-[3-(5-o-nitrilebenzyl(diethyl)ammonio)pentyl)-uracil-1-yl]}hexane bromide], the IC50 [1, 8] was 30 µM, the “AChE Selectivity” value ([2]; Table 1) was 57,034 and the IC50 [2, 9] was 0.0005 ± 0.00016 µM.

For CC[N+](CC)(CCCCCn1c(=O)ccn(CCCCCCn2c(C)cc(=O)n(C)c2=O)c1=O)Cc1ccccc1C(F)(F)F [1f], the IC50 [5] is listed as 40 µM, the “AChE Selectivity” value [6] is listed as 200,000 and the IC50 [6] is listed as 0.0002 ± 1e-05 µM.

For CCOP(=O)(OCC)Oc1ccc([N+](=O)[O-])cc1 [POX, paraoxon, reference compound], the “relative risk of death (RRD)” value ([7]; POX 0.42 mg/kg alone) was 1 and the “n/N (mice surviving 5 days after POX poisoning / total)” value ([7]; POX 0.42 mg/kg i.p. (2×LD50) alone) was 0/12.

For CN1[C@@H]2CC[C@H]1C[C@@H](OC(=O)C(CO)c1ccccc1)C2 (stereo partly drawn) [Atropine, atropine, reference compound], the “n/N (mice surviving 5 days after POX poisoning / total)” value ([7]; atropine 15 mg/kg i.p. 1 min after POX 0.42 mg/kg i.p., no pre-treatment) was 6/12 and the “relative risk of death (RRD)” value ([7]; atropine within 1 min after POX) was 0.5.

With CCN(CCCCCn1c(=O)ccn(CCCn2c(C)cc(=O)n(C)c2=O)c1=O)Cc1ccccc1C#N [3a] the IC50 ([1]; Table 2, human BuChE) was 69.1 µM, the “AChE Selectivity” value ([2]; Table 2) was 11,290 and the IC50 ([2]; Table 2, human AChE) was 0.0061 ± 0.0007 µM.

For CCN(CCCCCn1c(=O)ccn(CCCCCCn2c(C)cc(=O)n(C)c2=O)c1=O)Cc1ccccc1C#N [3d], the IC50 ([1]; Table 2, human BuChE) was 95 µM and the IC50 ([2]; Table 2, human AChE) was 0.0054 ± 0.0007 µM.

Molecule CC[N+](CC)(CCCCCn1c(=O)ccn(CCCn2c(C)cc(=O)n(C)c2=O)c1=O)Cc1ccccc1C#N [2a, 1,3-{(3,6-Dimethyluracil-1-yl)-[3-(5-o-nitrilebenzyl(diethyl)ammonio)pentyl)-uracil-1-yl]}propane bromide] has an IC50 [1, 8] of 370 µM and an IC50 [2, 9] of 0.0003 ± 3e-05 µM.

In the case of CC[N+](CC)(CCCCCn1c(=O)ccn(CCCCCCn2c(C)cc(=O)n(C)c2=O)c1=O)Cc1ccccc1[N+](=O)[O-] [1b], the IC50 [5] is given as 6 ± 0.43 µM, the “AChE Selectivity” value [6] is given as 60,000 and the IC50 [6] is given as 0.0001 ± 1e-05 µM.

Source: PMC12027946, “Ionic and Non-Ionic Counterparts Based on Bis(Uracilyl)Alkane Moiety with Highest Selectivity Towards Acetylcholinesterase for Protection Against Organophosphate Poisoning and Treating Alzheimer’s Disease” (International Journal of Molecular Sciences, 2025)
